Data on two compounds can be found in US20240239729A1, “Functionalization of Lightly Branched Olefin Oligomers” (priority 2021, published 2024).

The structures appear in SMILES notation.

Common to all, as to type: physicochemical
The nature of data set [1]: Critical micelle concentration in water (Kruss K100 tensiometer). The method, then:
Critical micelle concentrations in water were measured using an A Kruss Laboratory K100 tensiometer. CMC values were determined using the K100 instrument's fully automated measurement method, as described further in the K100 instrument's operating manual.

The nature of data set [2]: Calcium tolerance (hard water tolerance), surfactant remaining in filtrate by HPLC-ELSD. The following applies: 25° C.; 450 ppm surfactant, 420 ppm cations (3:1 Ca2+:Mg2+), stood overnight, 0.22 μm filtrate. The protocol:
Calcium tolerance was measured at 25° C. using the following procedure. A surfactant solution containing 450 ppm of alcohol sulfate surfactant and 420 ppm cations (3:1 Ca^2+:Mg^2+) was prepared and allowed to stand overnight. Crystals formed during this time. The supernatant liquid was removed and passed through a 0.22 μm filter to provide a filtrate. The filtrate was then analyzed for surfactant residue. Analysis of the surfactant and salt residue was performed using an Agilent 1100 HPLC combined with SEDEX 75 evaporative light scattering detector (ELSD) using the run conditions specified in Table 4 below. Peak height was utilized to analyze surfactant concentration. Some samples were repeated in triplicate. Calcium tolerance results are specified in Table 5 below.

Data set [3] in a line: Solubility in water at 25° C. by visual observation. The settings on record: 2-3 hours magnetic stirring. The method, then:
Solubility measurements were conducted in water at 25° C. Solubility was determined through visual observation after 2-3 hours of magnetic stirring of surfactant solutions having variable concentrations.

As to `CCCC(C)CCCC(C)CCCOS(=O)(=O)O` (stereo not shown) [Entry 8, 4,8-dimethylundecan-1-sulfate], the “CMC” value in data set [1] was 0.00129 g/g.

As to `CCCCCCCCCCCCCOS(=O)(=O)[O-].[Na+]` [Entry 5, Sodium n-Tridecyl Sulfate], the “Calcium tolerance (ppm surfactant remaining)” value in data set [2] worked out at 11.2 ppm. In data set [1], the “CMC” value turned out to be 0.001 g/g. Further, the “Solubility at 25° C., (Wt. %)” value in data set [3] is given as under 0.5% Wt. %.
